Measured values from ChEMBL document CHEMBL1201862, “PubChem BioAssay data set” (2004).
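Test compounds were applied to cells in 96-well plates for 48 hours at 5 doses. GI50 is the concentration that inhibits growth by half.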 Calls of active or inactive are those of the source. Cut-off read from the data, not from the text of the source: active = GI50 up to about 1.1 µM and inactive = higher.

Legend:
Experiment in all cases: DTP human tumour cell line panel, 48 h
RXF 393 = test system: RXF 393
T47D = test system: T47D
IGROV-1 = test system: IGROV-1
MOLT-4 = test system: MOLT-4
HCT-15 = test system: HCT-15
EKVX = test system: EKVX
ACHN = test system: ACHN
COLO 205 = test system: COLO 205
HCT-116 = test system: HCT-116
MDA-MB-231 = test system: MDA-MB-231
UACC-257 = test system: UACC-257
NCI-H226 = test system: NCI-H226
HT-29 = test system: HT-29
NCI/ADR-RES = test system: NCI/ADR-RES
MDA-N = test system: MDA-N
OVCAR-3 = test system: OVCAR-3
BT-549 = test system: BT-549
DU-145 = test system: DU-145
UO-31 = test system: UO-31
RPMI-8226 = test system: RPMI-8226
KM12 = test system: KM12
NCI-H522 = test system: NCI-H522
SN12C = test system: SN12C
OVCAR-5 = test system: OVCAR-5
NCI-H460 = test system: NCI-H460
NCI-H23 = test system: NCI-H23
Hs-578T = test system: Hs-578T
UACC-62 = test system: UACC-62
PC-3 = test system: PC-3
SK-MEL-5 = test system: SK-MEL-5
786-0 = test system: 786-0
MDA-MB-435 = test system: MDA-MB-435
SK-MEL-2 = test system: SK-MEL-2
SNB-75 = test system: SNB-75
SNB-19 = test system: SNB-19
OVCAR-8 = test system: OVCAR-8
SW-620 = test system: SW-620
K562 = test system: K562
A549 = test system: A549
M14 = test system: M14
TK-10 = test system: TK-10
CAKI-1 = test system: CAKI-1
HOP-62 = test system: HOP-62
OVCAR-4 = test system: OVCAR-4
SF-268 = test system: SF-268
HCC 2998 = test system: HCC 2998
SK-MEL-28 = test system: SK-MEL-28
U-251 = test system: U-251
Malme-3M = test system: Malme-3M
CCRF-CEM = test system: CCRF-CEM
SF-295 = test system: SF-295
LOX IMVI = test system: LOX IMVI
SK-OV-3 = test system: SK-OV-3
A498 = test system: A498
HOP-92 = test system: HOP-92
HL-60 = test system: HL-60
MCF7 = test system: MCF7
SR = test system: SR
SF-539 = test system: SF-539

In the case of `CCc1nc2ccc(/N=N/N(C)C)cc2[nH]1`, the GI50 (RXF 393) is reported as 45.3 µM (inactive), the GI50 (T47D) is reported as > 100 µM (inactive) and the GI50 (IGROV-1) is reported as > 100 µM (inactive). The GI50 (MOLT-4) was > 100 µM (inactive), the GI50 (HCT-15) was over 100 µM and the GI50 (EKVX) was > 100 µM (inactive). The GI50 (ACHN) was > 100 µM (inactive), the GI50 (COLO 205) was > 100 µM (inactive) and the GI50 (HCT-116) was > 100 µM (inactive). The GI50 (MDA-MB-231) was > 100 µM (inactive), the GI50 (UACC-257) was > 100 µM (inactive) and the GI50 (NCI-H226) was > 100 µM (inactive). The GI50 (HT-29) was > 100 µM (inactive), the GI50 (NCI/ADR-RES) was > 100 µM (inactive) and the GI50 (MDA-N) was > 100 µM (inactive). The GI50 (OVCAR-3) was > 100 µM (inactive), the GI50 (BT-549) was > 100 µM (inactive) and the GI50 (DU-145) was > 100 µM (inactive). For the same compound, the GI50 (UO-31) was > 100 µM (inactive), the GI50 (RPMI-8226) was > 100 µM (inactive) and the GI50 (KM12) was > 100 µM (inactive). For the same compound, the GI50 (NCI-H522) was > 100 µM (inactive), the GI50 (SN12C) was > 100 µM (inactive) and the GI50 (OVCAR-5) was > 100 µM (inactive). The GI50 (NCI-H460) was > 100 µM (inactive), the GI50 (NCI-H23) was > 100 µM (inactive) and the GI50 (Hs-578T) was > 100 µM (inactive). The GI50 (UACC-62) was > 100 µM (inactive), the GI50 (PC-3) was > 100 µM (inactive) and the GI50 (SK-MEL-5) was > 100 µM (inactive). The GI50 (786-0) was > 100 µM (inactive), the GI50 (MDA-MB-435) was > 100 µM (inactive) and the GI50 (SK-MEL-2) was > 100 µM (inactive). The GI50 (SNB-75) was > 100 µM (inactive), the GI50 (SNB-19) was > 100 µM (inactive) and the GI50 (OVCAR-8) was > 100 µM (inactive). The GI50 (SW-620) was > 100 µM (inactive), the GI50 (K562) was > 100 µM (inactive) and the GI50 (A549) was > 100 µM (inactive). The GI50 (M14) was > 100 µM (inactive), the GI50 (TK-10) was > 100 µM (inactive) and the GI50 (CAKI-1) was > 100 µM (inactive). The GI50 (HOP-62) was > 100 µM (inactive), the GI50 (OVCAR-4) was > 100 µM (inactive) and the GI50 (SF-268) was > 100 µM (inactive). For the same compound, the GI50 (HCC 2998) was > 100 µM (inactive), the GI50 (SK-MEL-28) was > 100 µM (inactive) and the GI50 (U-251) was > 100 µM (inactive). The GI50 (Malme-3M) was > 100 µM (inactive) and the GI50 (CCRF-CEM) was > 100 µM (inactive).
In the case of `O=C(Cn1c2ccc(Br)cc2c2nc3ccccc3nc21)NNC(=S)NC1CCCCC1`, the GI50 (RXF 393) is reported as 6.89 µM (inactive), the GI50 (T47D) is reported as 17.3 µM (inactive) and the GI50 (IGROV-1) is reported as 10.7 µM (inactive). For the same compound, the GI50 (MOLT-4) was 10.7 µM (inactive), the GI50 (HCT-15) was 12 µM and the GI50 (EKVX) was 18.6 µM (inactive). For the same compound, the GI50 (ACHN) was 16 µM (inactive), the GI50 (COLO 205) was 13.2 µM (inactive) and the GI50 (HCT-116) was 13.9 µM (inactive). For the same compound, the GI50 (MDA-MB-231) was 15.8 µM (inactive), the GI50 (UACC-257) was 16.4 µM (inactive) and the GI50 (NCI-H226) was 15.4 µM (inactive). The GI50 (HT-29) was 15.5 µM (inactive), the GI50 (SF-295) was 13.1 µM (inactive) and the GI50 (NCI/ADR-RES) was 17.3 µM (inactive). For the same compound, the GI50 (MDA-N) was 16.8 µM (inactive), the GI50 (OVCAR-3) was 10.8 µM (inactive) and the GI50 (BT-549) was 19.9 µM (inactive). The GI50 (DU-145) was 15.5 µM (inactive), the GI50 (UO-31) was 10.5 µM (inactive) and the GI50 (RPMI-8226) was 13.9 µM (inactive). The GI50 (KM12) was 18.7 µM (inactive), the GI50 (NCI-H522) was 14.5 µM (inactive) and the GI50 (LOX IMVI) was 12.4 µM (inactive). The GI50 (SN12C) was 21.3 µM (inactive), the GI50 (OVCAR-5) was 19.5 µM (inactive) and the GI50 (SK-OV-3) was 21.7 µM (inactive). For the same compound, the GI50 (NCI-H460) was 12.4 µM (inactive), the GI50 (NCI-H23) was 14.4 µM (inactive) and the GI50 (Hs-578T) was 24.5 µM (inactive). The GI50 (UACC-62) was 15.6 µM (inactive), the GI50 (PC-3) was 11.7 µM (inactive) and the GI50 (SK-MEL-5) was 14.2 µM (inactive). The GI50 (A498) was 16.7 µM (inactive), the GI50 (786-0) was 15.5 µM (inactive) and the GI50 (MDA-MB-435) was 13.8 µM (inactive). For the same compound, the GI50 (SK-MEL-2) was 17.2 µM (inactive), the GI50 (SNB-75) was 13.8 µM (inactive) and the GI50 (SNB-19) was 13.3 µM (inactive). For the same compound, the GI50 (OVCAR-8) was 14.7 µM (inactive), the GI50 (SW-620) was 15.8 µM (inactive) and the GI50 (K562) was 13.3 µM (inactive). The GI50 (HOP-92) was 11.8 µM (inactive), the GI50 (A549) was 10.6 µM (inactive) and the GI50 (M14) was 11.9 µM (inactive). For the same compound, the GI50 (TK-10) was 15.4 µM (inactive), the GI50 (CAKI-1) was 18 µM (inactive) and the GI50 (HOP-62) was 13.6 µM (inactive). For the same compound, the GI50 (OVCAR-4) was 12.6 µM (inactive), the GI50 (SF-268) was 16.7 µM (inactive) and the GI50 (HCC 2998) was 17.6 µM (inactive). The GI50 (SK-MEL-28) was 14.7 µM (inactive), the GI50 (U-251) was 15 µM (inactive) and the GI50 (Malme-3M) was 19.7 µM (inactive). The GI50 (CCRF-CEM) was 0.794 µM (active).
For `COc1ccc2cc(CNCCCCCCNC(=O)Nc3cccc4ccccc34)ccc2c1`, the GI50 (RXF 393) was > 100 µM (inactive), the GI50 (T47D) was > 100 µM (inactive) and the GI50 (IGROV-1) was > 100 µM (inactive). For the same compound, the GI50 (MOLT-4) was > 100 µM (inactive), the GI50 (HL-60) was > 100 µM (inactive) and the GI50 (HCT-15) was over 100 µM. For the same compound, the GI50 (EKVX) was > 100 µM (inactive), the GI50 (ACHN) was > 100 µM (inactive) and the GI50 (COLO 205) was > 100 µM (inactive). The GI50 (HCT-116) was > 100 µM (inactive), the GI50 (MDA-MB-231) was > 100 µM (inactive) and the GI50 (UACC-257) was > 100 µM (inactive). For the same compound, the GI50 (NCI-H226) was > 100 µM (inactive), the GI50 (HT-29) was > 100 µM (inactive) and the GI50 (SF-295) was > 100 µM (inactive). The GI50 (MDA-N) was > 100 µM (inactive), the GI50 (OVCAR-3) was > 100 µM (inactive) and the GI50 (BT-549) was > 100 µM (inactive). The GI50 (DU-145) was > 100 µM (inactive), the GI50 (RPMI-8226) was > 100 µM (inactive) and the GI50 (KM12) was > 100 µM (inactive). For the same compound, the GI50 (NCI-H522) was > 100 µM (inactive), the GI50 (LOX IMVI) was > 100 µM (inactive) and the GI50 (SN12C) was > 100 µM (inactive). For the same compound, the GI50 (OVCAR-5) was > 100 µM (inactive), the GI50 (SK-OV-3) was > 100 µM (inactive) and the GI50 (MCF7) was > 100 µM (inactive). The GI50 (NCI-H460) was > 100 µM (inactive), the GI50 (NCI-H23) was > 100 µM (inactive) and the GI50 (Hs-578T) was > 100 µM (inactive). The GI50 (UACC-62) was > 100 µM (inactive), the GI50 (PC-3) was > 100 µM (inactive) and the GI50 (SK-MEL-5) was > 100 µM (inactive). The GI50 (A498) was > 100 µM (inactive), the GI50 (786-0) was > 100 µM (inactive) and the GI50 (SR) was > 100 µM (inactive). For the same compound, the GI50 (MDA-MB-435) was > 100 µM (inactive), the GI50 (SK-MEL-2) was > 100 µM (inactive) and the GI50 (SNB-75) was > 100 µM (inactive). The GI50 (SNB-19) was > 100 µM (inactive), the GI50 (OVCAR-8) was > 100 µM (inactive) and the GI50 (SW-620) was > 100 µM (inactive). The GI50 (K562) was > 100 µM (inactive), the GI50 (HOP-92) was > 100 µM (inactive) and the GI50 (A549) was > 100 µM (inactive). The GI50 (M14) was > 100 µM (inactive), the GI50 (TK-10) was > 100 µM (inactive) and the GI50 (CAKI-1) was > 100 µM (inactive). For the same compound, the GI50 (HOP-62) was > 100 µM (inactive), the GI50 (OVCAR-4) was > 100 µM (inactive) and the GI50 (SF-268) was > 100 µM (inactive). The GI50 (HCC 2998) was > 100 µM (inactive), the GI50 (SK-MEL-28) was > 100 µM (inactive) and the GI50 (U-251) was > 100 µM (inactive). The GI50 (Malme-3M) was > 100 µM (inactive), the GI50 (SF-539) was > 100 µM (inactive) and the GI50 (CCRF-CEM) was > 100 µM (inactive).
